In series [1] the test system is Escherichia coli. The experiment in a line: Antimicrobial activity against Escherichia coli ATCC 25922 assessed as reduction in bacterial growth by broth dilution method. Format: functional. A general note: Dilution methods test growth across graded concentrations, often in twofold steps.
The subject of series [2] is Staphylococcus aureus. The series is described as follows: Antimicrobial activity against multi-drug resistant Staphylococcus aureus assessed as fold increase in MIC in presence of NaCl. Format: functional.
Series [3] deals with Escherichia coli. The series is described as follows: Antimicrobial activity against multi-drug resistant Escherichia coli assessed as fold increase in MIC in presence of MgCl2. The series is classed as functional.
A further series has as its system L02. The series is described as follows: Cytotoxicity against human LO2 cells at 2 to 256 uM measured after 24 hrs by CCK-8 method. The series is classed as toxicity, cell-based. As to conditions: l02, 24 h, dose 2-256 µM. A general note: Tetrazolium assays rely on reduction of a dye to a coloured formazan, in cell work by metabolically active cells.
Series [4] deals with Staphylococcus aureus. The series is described as follows: Antimicrobial activity against multi-drug resistant Staphylococcus aureus assessed as reduction in bacterial growth at 2 times MIC measured after 1 hrs in presence of chymotrypsin by microplate reader based analysis. The series is classed as functional, organism-based.
Series [5] deals with Escherichia coli. The series is described as follows: Antimicrobial activity against multi-drug resistant Escherichia coli assessed as reduction in bacterial growth by broth dilution method. The series is classed as functional.
Another series deals with BEAS-2B. The series is described as follows: Cytotoxicity against human BEAS-2B cells at 2 to 256 uM measured after 24 hrs by CCK-8 method. The series is classed as toxicity, cell-based. To be noted: dose 2-256 µM.
The test system of a further series is HEK-293T. The series is described as follows: Cytotoxicity against HEK293T cells at 2 to 256 uM measured after 24 hrs by CCK-8 method. The series is classed as toxicity, cell-based. As to conditions: human, dose 2-256 µM.
Series [6] concerns Escherichia coli. The experiment in a line: Antimicrobial activity against multi-drug resistant Escherichia coli assessed as reduction in bacterial growth at 2 times MIC measured after 1 hrs in presence of chymotrypsin by microplate reader based analysis. Format: functional, organism-based.
For series [7], the system named is Escherichia coli. The experiment in a line: Antimicrobial activity against multi-drug resistant Escherichia coli assessed as fold increase in MIC in presence of NaCl. The series is classed as functional.
In a further series the test system is Klebsiella pneumoniae. The series is described as follows: Antimicrobial activity against multi-drug resistant Klebsiella pneumoniae assessed as reduction in bacterial growth by broth dilution method. The series is classed as functional.
In the next series the test system is Acinetobacter baumannii. The series is described as follows: Antimicrobial activity against multi-drug resistant Acinetobacter baumannii assessed as reduction in bacterial growth by broth dilution method. The series is classed as functional.
Series [8] has as its system Staphylococcus epidermidis. The experiment in a line: Antimicrobial activity against multi-drug resistant Staphylococcus epidermidis assessed as reduction in bacterial growth by broth dilution method. The series is classed as functional.
Series [9] deals with Escherichia coli. The series is described as follows: Antimicrobial activity against multi-drug resistant Escherichia coli assessed as reduction in bacterial growth at 2 times MIC measured after 1 hrs in presence of trypsin by microplate reader based analysis. The series is classed as functional, organism-based.
The test system of series [10] is Staphylococcus aureus. The series is described as follows: Antimicrobial activity against multi-drug resistant Staphylococcus aureus assessed as fold increase in MIC measured after 6 hrs in 25% plasma. Format: functional.
In series [11] the test system is Escherichia coli. The series is described as follows: Antimicrobial activity against multi-drug resistant Escherichia coli assessed as fold increase in MIC measured after 6 hrs in 25% plasma. The series is classed as functional.
In series [12] the test system is Staphylococcus aureus. The series is described as follows: Antimicrobial activity against multi-drug resistant Staphylococcus aureus assessed as fold increase in MIC in presence of MgCl2. The series is classed as functional.
Series [13] in a line: Hemolytic activity in human Red blood cell assessed as hemolysis incubated for 1 hrs by microplate reader based analysis. Format: toxicity. To be noted: erythrocyte.
Series [14] can be described thus: Half life of the compound in 25% plasma. The series is classed as ADME, cell-free.
Series [15] has as its system Staphylococcus aureus. The experiment in a line: Antimicrobial activity against multi-drug resistant Staphylococcus aureus assessed as reduction in bacterial growth at 2 times MIC measured after 1 hrs in presence of trypsin by microplate reader based analysis. Format: functional, organism-based.
For series [16], the system named is Staphylococcus aureus. The series is described as follows: Antimicrobial activity against Staphylococcus aureus ATCC 25923 assessed as reduction in bacterial growth by broth dilution method. The series is classed as functional.
The subject of the next series is Enterococcus faecalis. The experiment in a line: Antimicrobial activity against multi-drug resistant Enterococcus faecalis assessed as reduction in bacterial growth by broth dilution method. Format: functional.
Series [17] deals with Staphylococcus aureus. The series is described as follows: Antimicrobial activity against multi-drug resistant Staphylococcus aureus assessed as reduction in bacterial growth by broth dilution method. The series is classed as functional.
Series [18] has as its system Escherichia coli. The experiment in a line: Antibacterial activity against Escherichia coli […] at sub-inhibitory concentration measured after 7 passages for 18 hrs. Format: functional, organism-based.
For series [19], the system named is Cell membrane. The experiment in a line: Induction of outer membrane permeabilization in multi-drug resistant Escherichia coli assessed as NPN uptake at 1 to 4 times MIC measured within 1 min by fluorescence based analysis. Format: subcellular.
Series [20] concerns Staphylococcus aureus. The series is described as follows: Antibacterial activity against Staphylococcus aureus ATCC 25923 at sub-inhibitory concentration measured after 7 passages for 18 hrs. The series is classed as functional, organism-based.
For series [21], the system named is Cell membrane. The series is described as follows: Induction of cytoplasmic membrane depolarization in multi-drug resistant Escherichia coli at 1 to 4 times MIC measured within 1 min by DiSC3-5 fluorescent dye based analysis.
Series [22] has as its system Escherichia coli. The series is described as follows: Bactericidal activity against multi-drug resistant Escherichia coli at 1 times MIC preincubated with LPS for 1 hrs followed by bacterial addition and measured after 18 hrs by microplate reader based analysis. As to conditions: time 19.0 hrs. The series is classed as functional, organism-based.
Series [23] concerns Cell membrane. The series is described as follows: Induction of cytoplasmic membrane depolarization in multi-drug resistant Staphylococcus aureus at 1 to 4 times MIC measured within 1 min by DiSC3-5 fluorescent dye based analysis.

≈ marks a conversion by molar mass, not a printed value. Calls of active or inactive are those of the source. Bridge positions count the residues as written; N and C are the ends. Square brackets hold non-standard residues; d marks the D form. Peptide text beside a SMILES is read from it. * marks the point of attachment. X1 = CC[C@H](C)CCCCC(=O)*; dDab = NCC[C@@H](N)C(=O)O; Dab = NCC[C@H](N)C(=O)O

The term MIC denotes the smallest concentration in the dilution series that meets the test's criterion for growth inhibition. The half-life is how long it takes for the measured level to halve. A lower half-life goes with fast loss. Take `CC(C)C[C@H](NC(=O)[C@H](CCCCN)NC(=O)[C@H](CC(C)C)NC(=O)[C@H](CCCCN)NC(=O)[C@@H]1CCCN1C(=O)[C@H](Cc1c[nH]c2ccccc12)NC(=O)[C@H](Cc1c[nH]c2ccccc12)NC(=O)[C@H](Cc1c[nH]c2ccccc12)NC(=O)[C@@H]1CCCN1C(=O)[C@H](CCCCN)NC(=O)[C@H](CC(C)C)NC(=O)[C@H](CCCCN)NC(=O)[C@H](CC(C)C)NC(=O)[C@@H](N)CCCCN)C(=O)N[C@@H](CCCCN)C(N)=O` (H-KLKLKPWWWPKLKLK-NH2): the MIC is 4 µM (≈ 7.97 µg/mL) in the series with Escherichia coli [1]; 4 µM (≈ 7.97 µg/mL) with Escherichia coli [5]; 4 µM (≈ 7.97 µg/mL) with Klebsiella pneumoniae; 8 µM (≈ 15.9 µg/mL) in the series with Acinetobacter baumannii; 8 µM (≈ 15.9 µg/mL) in series [8]; 8 µM (≈ 15.9 µg/mL) with Staphylococcus aureus [16]. The MIC with Enterococcus faecalis and with Staphylococcus aureus [17] was 8 µM (≈ 15.9 µg/mL) each time. Besides, the “fold change (FC)” value with Staphylococcus aureus [2], in the series with Escherichia coli [3], with Escherichia coli [7], in the series with Staphylococcus aureus [10], in the series with Escherichia coli [11] and in the series on Staphylococcus aureus [12] was 2 in each case. Further, the Activity entry in the series with L02, with BEAS-2B and in the series with HEK-293T was “Toxic” in each case. For the same compound, the outcome in the series on Staphylococcus aureus [4], in the series on Escherichia coli [6], in the series with Escherichia coli [9] and in the series with Staphylococcus aureus [15] was inactive. Besides, in [13], the HC10 is more than 256 µM. Further, in series [14], the half-life is 35.4 h.

With `CC(C)[C@H](NC(=O)[C@H](CCCCN)NC(=O)[C@@H](NC(=O)[C@H](CCCCN)NC(=O)[C@H](Cc1ccccc1)NC(=O)[C@@H]1CCCN1C(=O)[C@H](Cc1c[nH]c2ccccc12)NC(=O)[C@H](Cc1c[nH]c2ccccc12)NC(=O)[C@H](Cc1c[nH]c2ccccc12)NC(=O)[C@@H]1CCCN1C(=O)[C@H](Cc1ccccc1)NC(=O)[C@H](CCCCN)NC(=O)[C@@H](NC(=O)[C@H](CCCCN)NC(=O)[C@@H](NC(=O)[C@@H](N)CCCCN)C(C)C)C(C)C)C(C)C)C(=O)N[C@@H](CCCCN)C(N)=O` (H-KVKVKFPWWWPFKVKVK-NH2), the MIC in the series on Escherichia coli [1] was determined as 4 µM (≈ 8.92 µg/mL); with Escherichia coli [5], 4 µM (≈ 8.92 µg/mL); with Klebsiella pneumoniae, 16 µM (≈ 35.7 µg/mL); with Acinetobacter baumannii, 8 µM (≈ 17.8 µg/mL); in series [8] it was 4 µM (≈ 8.92 µg/mL); in the series with Staphylococcus aureus [16], 8 µM (≈ 17.8 µg/mL). Also, the values for the minimal inhibitory concentration (MIC) in the series with Enterococcus faecalis and with Staphylococcus aureus [17] were 4 µM (≈ 8.92 µg/mL) and 8 µM (≈ 17.8 µg/mL), respectively. Further, the Activity result with L02, in the series with BEAS-2B and in the series on HEK-293T was “Toxic” in each case. Also, the HC10 in series [13] is 243.97 µM.

Consider `CC(C)CCCCC(=O)N[C@@H](CCN)C(=O)N[C@H](C(=O)N[C@@H](CCN)C(=O)N[C@H]1CCNC(=O)[C@H]([C@@H](C)O)NC(=O)[C@H](CCN)NC(=O)[C@H](CCN)NC(=O)[C@H](CC(C)C)NC(=O)[C@@H](Cc2ccccc2)NC(=O)[C@@H](CCN)NC1=O)[C@@H](C)O.CC[C@H](C)CCCCC(=O)N[C@@H](CCN)C(=O)N[C@H](C(=O)N[C@@H](CCN)C(=O)N[C@H]1CCNC(=O)[C@H]([C@@H](C)O)NC(=O)[C@H](CCN)NC(=O)[C@H](CCN)NC(=O)[C@H](CC(C)C)NC(=O)[C@@H](Cc2ccccc2)NC(=O)[C@@H](CCN)NC1=O)[C@@H](C)O` (X1-[Dab]T[Dab][Dab][dDab][dF]L[Dab][Dab]T; lactam 4-C), for which the outcome in the series on Escherichia coli [18], in the series on Staphylococcus aureus [20], in the series on Escherichia coli [22] and with Cell membrane [23] was inactive. In addition, the result in the series on Cell membrane [19] and with Cell membrane [21] was Active.

These data come from ChEMBL document CHEMBL6134890, “Terminally Symmetric β-Turn Peptides for Multidrug-Resistant Bacterial Infections” (J Med Chem, 2025).
